Laboratory results from US8304447B2, “2-acylaminopropoanol-type glucosylceramide synthase inhibitors” (Genzyme Corporation, priority 2007, dated 2012).

What follows are compounds tested on GM3 (assay: GM3 Elisa assay). Details: 48 h, Table 1; B16-FO cells, 2 days incubation; read-out: IC50_uM_Mean.
Format: cell-based
Method in brief: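 Cellular GM3 ELISA: fixed cells probed with monoclonal anti-GM3 (NeuAc), HRP-conjugated anti-IgM and fluorogenic Quantablu substrate, read at Ex 325/Em 420. Cells were B16-FO, treated 2 days after a 6 h attachment on collagen-coated wells.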

Row | SMILES | IC50 [nM]
1 | O=C(Cc1ccc(-c2ccc(Cl)cc2)cc1)N[C@H](CN1CCCC1)[C@H](O)c1ccc2c(c1)OCCO2 [Compound 48, 2-(4′-chlorobiphenyl-4-yl)-N-((1R, 2R)-1-(2,3-dihydrobenzo[β][1,4]dioxin-6-yl)-1-hydroxy-3-(pyrrolidin-1-yl)propan-2-yl)acetamide] | ≤ 100
2 | O=C(CCOc1ccc(Cl)cc1)N[C@H](CN1CCCC1)[C@H](O)c1ccc2c(c1)OCCO2 [Compound 57, 3-(4-chlorophenoxy)-N-((1R,2R)-1-(2,3-dihydrobenzo[β][1,4]dioxin-6-yl)-1-hydroxy-3-(pyrrolidin-1-yl)propan-2-yl)propanamide] | ≤ 100
3 | O=C(CCSc1ccccc1)N[C@H](CN1CCCC1)[C@H](O)c1ccc2c(c1)OCCO2 [Compound 32, N-((1R,2R)-1-(2,3-dihydrobenzo[β][1,4]dioxin-6-yl)-1-hydroxy-3-(pyrrolidin-1-yl)propan-2-yl)-3-(phenylthio)propanamide] | ≤ 100

Same assay, conditions: 48 h, Table 2; B16-FO cells, 2 days incubation; read-out: IC50_uM_Mean

Row | IC50 [nM] | SMILES
4 | ≤ 100 | COc1ccc([C@@H](O)[C@@H](CN2CCCC2)NC(=O)CCOc2ccc(C)cc2)cc1 [Compound 247, N-((1R,2R)-1-hydroxy-1-(4-methoxyphenyl)-3-(pyrrolidin-1-yl)propan-2-yl)-3-(p-tolyloxy)propanamide]
5 | ≤ 100 | COc1ccc([C@@H](O)[C@@H](CN2CCCC2)NC(=O)CCCCC(=O)c2ccc(OC(C)C)cc2)cc1 [Compound 272]
6 | 100 to 1000 | COc1ccc([C@@H](O)[C@@H](CN2CCCC2)NC(=O)CCCCCC(C)(C)OC)cc1 [Compound 273]
7 | 100 to 1000 | COc1ccc([C@@H](OC(=O)CCOc2ccc(C)cc2)[C@@H](CN2CCCC2)NC(=O)CCOc2ccc(C)cc2)cc1 [Compound 248]
8 | ≤ 100 | COc1ccc(C(=O)CCCCC(=O)N[C@H](CN2CCCC2)[C@H](O)c2ccc3c(c2)OCO3)cc1 [Compound 267, N-((1R,2R)-1-(benzo[δ][1,3]dioxol-5-yl)-1-hydroxy-3-(pyrrolidin-1-yl)propan-2-yl)-6-(4-methoxyphenyl)-6-oxohexanamide (2S,3S)-2,3-dihydroxysuccinate]

Second part, the compound before the results:

Row | SMILES | IC50 [nM]
9 | O=C(Cc1ccc(OC(F)(F)F)cc1)N[C@H](CN1CCOCC1)[C@H](O)c1ccc2c(c1)OCCO2 [Compound 258] | 3000 to 10000
10 | CCCCCCCCCCCCCCCC(=O)N[C@H](CN1CCOCC1)[C@H](O)c1ccccc1 [Compound 317] | 100 to 1000
11 | COc1ccc([C@@H](O)[C@@H](CN2CCCC2)NC(=O)CCCCCC(C)(C)OC)cc1OC [Compound 277] | 3000 to 10000

Same assay, conditions: Table 2; B16-FO cells, 2 days incubation; read-out: IC50_uM_Mean

Row | SMILES | IC50 [nM]
12 | COc1ccc([C@@H](O)[C@@H](CN2CCCC2)NC(=O)OCc2ccccc2)cc1 [Compound 246] | 1000 to 3000

Same assay, conditions: Table 3 (IC 50 Values); B16-FO cells; read-out: IC50_uM_Mean

Row | IC50 [nM] | SMILES
13 | ≤ 100 | COc1ccc(C(=O)CCCCC(=O)N[C@H](CN2CCCC2)[C@H](O)c2ccc(OCCC3CCCCC3)cc2)cc1 [Compound 419]
14 | 100 to 1000 | COc1ccc(C(=O)CCCCC(=O)N[C@H](CN2CCCC2)[C@H](O)c2ccc(OC)c(C)c2)cc1 [Compound 387]
15 | ≤ 100 | COc1ccc(OCCCC(=O)N[C@H](CN2CC[C@H](O)C2)[C@H](O)c2ccc(OC(C)C)cc2)cc1 [Compound 733]
16 | ≤ 100 | COc1ccc(C(=O)CCCCC(=O)N[C@H](CN2CCCC2)[C@H](O)c2ccc(OCC3CCCCC3)cc2)cc1 [Compound 420]
17 | 3000 to 10000 | COc1ccc(OCCC(=O)N[C@H](CN2CCC(C)CC2)[C@H](O)c2ccc3c(c2)OCCO3)cc1 [Compound 610]
18 | ≤ 100 | COc1ccc(C(=O)CCCCCC(=O)N[C@H](CN2CCCC2)[C@H](O)c2ccc(OC)c(F)c2)cc1 [Compound 345]
19 | 100 to 1000 | COc1ccc(OCCC(=O)N[C@H](CN2CC[C@@H](F)C2)[C@H](O)c2ccc3c(c2)OCCO3)cc1 [Compound 509]
20 | ≤ 100 | COc1ccc(C(=O)CCCCC(=O)N[C@H](CN2CCCC2)[C@H](O)c2ccc(OCCCOc3ccc(C)cc3)cc2)cc1 [Compound 430]
21 | ≤ 100 | COCCOc1ccc([C@@H](O)[C@@H](CN2CCCC2)NC(=O)CCCCC(=O)c2ccc(OC)cc2)cc1 [Compound 417]
22 | ≤ 100 | COc1ccc([C@@H](O)[C@@H](CN2CCCC2)NC(=O)Cc2ccc(OC(F)(F)F)cc2)cc1Cl [Compound 710]
23 | 100 to 1000 | Cc1ccc(OCCC(=O)N[C@H](CN2CC[C@@H](F)C2)[C@H](O)c2ccc(OC(C)C)cc2)cc1 [Compound 448]
24 | ≤ 100 | COc1ccc(OCCC(=O)N[C@H](CN2CCCC2)[C@H](O)c2ccc(OC)c(F)c2)cc1 [Compound 341]

The remaining lines, values behind:

Row | SMILES | IC50 [nM]
25 | CCCCOc1ccc([C@@H](O)[C@@H](CN2CC[C@@H](F)C2)NC(=O)CCCCCOC2CCC2)cc1 [Compound 662] | 100 to 1000
26 | CCCCOc1ccc(C(CN2CCCC2)NC(=O)CCCCC(=O)c2ccc(OC)cc2)cc1 (stereo not drawn) [Compound 588] | 3000 to 10000
27 | COc1ccc(C(=O)CCCCCC(=O)N[C@H](CN2[C@H](C)CC[C@H]2C)[C@H](O)c2ccc3c(c2)OCCO3)cc1 [Compound 548] | 1000 to 3000
28 | CCCCCCCC(=O)N[C@H](CN1CCCC1)[C@H](O)c1sccc1C [Compound 360] | 100 to 1000
29 | CCCCCCCCCCCCCCCC(=O)N[C@H](CN(C)Cc1ccccc1)[C@H](O)c1ccc2c(c1)OCCO2 [Compound 682] | 3000 to 10000
30 | COc1ccc(C(=O)CCCCCC(=O)N[C@H](CN2CC[C@@H](O)C2)[C@H](O)c2ccc3c(c2)OCCO3)cc1 [Compound 518] | 100 to 1000
31 | COc1ccc(C(=O)CCCCCC(=O)N[C@H](CN2CCCCC2C)[C@H](O)c2ccc3c(c2)OCCO3)cc1 (stereo partly drawn) [Compound 607] | 1000 to 3000
32 | COCCOc1ccc(C(=O)CCCCC(=O)N[C@H](CN2CCCC2)[C@H](O)c2ccc3c(c2)OCCO3)cc1 [Compound 450] | ≤ 100
33 | O=C1CCC(=O)N1[C@H](CN1CCCC1)[C@H](O)c1ccc2c(c1)OCCO2 [Compound 670] | 3000 to 10000
34 | CCCCCCCCCCCCCCCC(=O)N[C@H](CNC(C)C)[C@H](O)c1ccc2c(c1)OCCO2 [Compound 680] | ≤ 100
35 | CCCCOc1ccc([C@@H](O)[C@@H](CN2CC[C@H](O)C2)NC(=O)CCCCC(=O)c2ccc(F)cc2)cc1 [Compound 657] | 100 to 1000
36 | COc1ccc([C@@H](O)[C@@H](CO)NC(=O)OCc2ccccc2)c(OC)c1 [Compound 352] | 3000 to 10000
37 | O=C(CCCOc1ccc(F)cc1)N[C@H](CN1CC[C@H](O)C1)[C@H](O)c1ccc2c(c1)OCCO2 [Compound 656] | ≤ 100
38 | CCCCOc1ccc(C(O)[C@@H](CN2CC[C@@H](F)C2)NC(=O)CCCCCCCOC)cc1 (stereo partly drawn) [Compound 584] | 100 to 1000
39 | O=C(CCCCCn1cccn1)N[C@H](CN1CCCC1)[C@H](O)c1ccc2c(c1)OCCO2 [Compound 644] | 1000 to 3000
40 | COc1ccc(C(=O)CCCCC(=O)N[C@H](CN2C3CCC2CC3)[C@H](O)c2ccc(OC(C)C)cc2)cc1 [Compound 376] | ≤ 100
41 | O=C(COC1CCCCC1)N[C@H](CN1CCCC1)[C@H](O)c1ccc2c(c1)OCCO2 [Compound 645] | 3000 to 10000
42 | CC(O)(CCCCCC(=O)N[C@H](CN1CCCC1)[C@H](O)c1ccc2c(c1)OCCO2)C1CCCC1 (stereo partly drawn) [Compound 633] | 100 to 1000
43 | CCCCCCCCC(=O)N[C@H](CN1CCCC1)[C@H](O)c1ccc(OC)c(Cl)c1 [Compound 708] | ≤ 100
44 | COc1ccc(CN(C(=O)CCCCC(=O)c2ccc(OC)cc2)[C@H](CN2CCCC2)[C@H](O)c2ccc(O)cc2)cc1 [Compound 426] | 3000 to 10000
45 | COc1ccc(C(=O)CCCCCC(=O)NCCN2CCCC2)cc1 [Compound 536] | 3000 to 10000
